Results reported in publication PMC3433420 (PLoS ONE, 2012).
Residues, ends and D or L forms follow the SMILES beside them.

Legend:
[1] = biological target: T1, PIK3R1-NC tandem SH2 domains (Homo sapiens, UniProt P27986); assay: FP saturation binding assay; settings: high-confidence ErbB interactions
T1 construct: the tandem protein was included in our analysis with all internal amino acids linking the domains; 6X His; thioredoxin; made in house; host or cells: E. coli BL21(DE3)pLysS
Procedure, shortened: (§1)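 Rhodamine-labeled peptides (10 nM final) were titrated with 12 SH2 domain concentrations (0.002–10 µM) in 20 mM HEPES, 100 mM KCl, 0.1% Tween-20, 5 mM DTT, pH 7.8. After 20 min at room temperature in the dark, FP (ex 530/em 555 nm) was read. KDs came from nonlinear least-squares fits.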

PIK3R3-C SH2 domain = biological target: T2, PIK3R3-C SH2 domain (Homo sapiens, UniProt Q92569); assay: biochemical; assay type: binding; settings: high-confidence ErbB interactions
T2 construct: thioredoxin; made in house; host or cells: E. coli BL21(DE3)pLysS

PTPN11-N SH2 domain = biological target: T3, PTPN11-N SH2 domain (Homo sapiens, UniProt Q06124); assay: FP saturation binding assay
T3 sequence (Q06124 6-102 limits assumed): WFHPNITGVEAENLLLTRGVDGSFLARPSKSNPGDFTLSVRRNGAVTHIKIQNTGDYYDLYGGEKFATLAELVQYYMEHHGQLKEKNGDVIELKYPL

SHC1-PTB domain = biological target: T4, SHC1-PTB domain (Homo sapiens, UniProt P29353); assay: FP saturation binding assay
T4 sequence (P29353 156-339 limits assumed): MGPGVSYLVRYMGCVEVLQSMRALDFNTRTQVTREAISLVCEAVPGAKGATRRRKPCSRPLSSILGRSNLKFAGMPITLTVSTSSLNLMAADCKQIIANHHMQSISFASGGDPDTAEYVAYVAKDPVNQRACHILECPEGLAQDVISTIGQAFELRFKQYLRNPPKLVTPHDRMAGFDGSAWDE

VAV3 SH2 domain = biological target: T5, VAV3 SH2 domain (Homo sapiens, UniProt Q9UKW4); assay: FP saturation binding assay; settings: protein VAV3, high-confidence ErbB interactions, mean of replicate hits
T5 construct: 6X His; thioredoxin; made in house; host or cells: BL21(DE3)pLysS E. coli
Procedure, shortened: as §1

T5 sequence (Q9UKW4 672-766 limits assumed): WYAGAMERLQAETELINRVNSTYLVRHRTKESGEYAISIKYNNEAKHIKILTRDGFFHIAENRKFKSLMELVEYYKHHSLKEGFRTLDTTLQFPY
T1 sequence (P27986 333-718 limits assumed): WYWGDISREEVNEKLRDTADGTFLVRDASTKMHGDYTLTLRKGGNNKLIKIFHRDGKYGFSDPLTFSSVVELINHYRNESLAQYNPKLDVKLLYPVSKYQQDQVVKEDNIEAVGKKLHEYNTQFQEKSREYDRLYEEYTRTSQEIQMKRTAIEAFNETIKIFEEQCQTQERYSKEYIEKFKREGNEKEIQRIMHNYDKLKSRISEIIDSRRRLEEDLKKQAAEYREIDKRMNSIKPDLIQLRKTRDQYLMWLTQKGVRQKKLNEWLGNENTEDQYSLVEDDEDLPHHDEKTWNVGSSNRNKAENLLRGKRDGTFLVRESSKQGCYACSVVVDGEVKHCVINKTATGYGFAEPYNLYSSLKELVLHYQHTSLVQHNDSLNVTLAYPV

**Q.** `CC(C)C[C@H](NC(=O)[C@H](Cc1ccc(OP(=O)(O)O)cc1)NC(=O)[C@H](CCC(=O)O)NC(=O)[C@H](CCC(=O)O)NC(=O)[C@H](C)NC(=O)[C@@H](N)CC(=O)O)C(=O)N[C@H](C(=O)N1CCC[C@H]1C(=O)N[C@@H](CCC(N)=O)C(=O)N[C@@H](CCC(N)=O)C(=O)NCC(=O)N[C@@H](Cc1ccccc1)C(=O)N[C@@H](CC(=O)O)C(=O)O)C(C)C` [ErbB2 1023 13-mer] (HELM PEPTIDE1{D.A.E.E.[O=C([C@H](Cc1ccc(OP(=O)(O)O)cc1)N[*:1])[*:2]].L.V.P.Q.Q.G.F.D}$$$$V2.0) was tested. Which Kd ([1]; Protein PIK3R1-NC, FP saturation binding, mean over replicate hits) did it give?
**A.** 7.14 µM

**Q.** What about the Kd (PIK3R3-C SH2 domain; Protein PIK3R3-C, FP saturation binding, mean over replicate hits) of the same compound?
**A.** 5.8 µM

**Q.** With `CC(C)[C@H](NC(=O)[C@H](CC(=O)O)NC(=O)[C@@H]1CCCN1C(=O)[C@H](CCC(N)=O)NC(=O)[C@H](CC(N)=O)NC(=O)[C@@H](NC(=O)[C@H](Cc1ccc(OP(=O)(O)O)cc1)NC(=O)[C@H](CCC(=O)O)NC(=O)[C@@H]1CCCN1C(=O)[C@H](CCC(N)=O)NC(=O)[C@@H]1CCCN1)C(C)C)C(=O)N[C@@H](CCCNC(=N)N)C(=O)N[C@@H](CC(=O)O)C(=O)O` [ErbB2 1139 13-mer] (HELM PEPTIDE1{P.Q.P.E.[O=C([C@H](Cc1ccc(OP(=O)(O)O)cc1)N[*:1])[*:2]].V.N.Q.P.D.V.R.D}$$$$V2.0) as the compound, how does the Kd (PTPN11-N SH2 domain) read?
**A.** 8.86 µM

**Q.** How did the Kd (SHC1-PTB domain) turn out when `CC(C)C[C@H](NC(=O)[C@H](CC(N)=O)NC(=O)[C@@H](N)CC(=O)O)C(=O)N[C@@H](Cc1ccc(O)cc1)C(=O)N[C@@H](Cc1ccc(OP(=O)(O)O)cc1)C(=O)N[C@@H](Cc1c[nH]c2ccccc12)C(=O)N[C@@H](CC(=O)O)C(=O)N[C@@H](CCC(N)=O)C(=O)N[C@@H](CC(=O)O)C(=O)N1CCC[C@H]1C(=O)N1CCC[C@H]1C(=O)N[C@@H](CCC(=O)O)C(=O)N[C@@H](CC(=O)O)C(=O)O` [ErbB2 1222 13-mer] (HELM PEPTIDE1{D.N.L.Y.[O=C([C@H](Cc1ccc(OP(=O)(O)O)cc1)N[*:1])[*:2]].W.D.Q.D.P.P.E.D}$$$$V2.0) was run?
**A.** 2.96 µM

**Q.** `CSCC[C@H](NC(=O)[C@H](Cc1ccc(OP(=O)(O)O)cc1)NC(=O)[C@H](CCC(=O)O)NC(=O)[C@H](Cc1ccc(O)cc1)NC(=O)CNC(=O)[C@@H](N)CC(C)C)C(=O)N[C@@H](CC(=O)O)C(=O)N[C@H](C(=O)NCC(=O)N[C@@H](CO)C(=O)N[C@@H](CC(=O)O)C(=O)N[C@@H](CC(C)C)C(=O)N[C@@H](CC(=O)O)C(=O)O)C(C)C` [ErbB3 1224 13-mer] (HELM PEPTIDE1{L.G.Y.E.[O=C([C@H](Cc1ccc(OP(=O)(O)O)cc1)N[*:1])[*:2]].M.D.V.G.S.D.L.D}$$$$V2.0) was tested. Which Kd (PTPN11-N SH2 domain) did it give?
**A.** 4.8 µM

**Q.** What about the Kd (PIK3R3-C SH2 domain; protein PIK3R3-C, FP, mean of replicate hits) of the same compound?
**A.** 6.11 µM

**Q.** What about the Kd (SHC1-PTB domain) of the same compound?
**A.** 5.27 µM

**Q.** For `CSCC[C@H](NC(=O)[C@H](CCC(=O)O)NC(=O)[C@H](CCC(=O)O)NC(=O)[C@H](Cc1ccc(OP(=O)(O)O)cc1)NC(=O)CNC(=O)[C@H](CCC(N)=O)NC(=O)[C@H](CCC(=O)O)NC(=O)[C@@H](N)CO)C(=O)N[C@@H](CCCNC(=N)N)C(=O)N[C@@H](C)C(=O)N[C@@H](Cc1ccccc1)C(=O)N[C@@H](CCC(N)=O)C(=O)N[C@@H](CC(=O)O)C(=O)O` [ErbB3 1289 13-mer] (HELM PEPTIDE1{S.E.Q.G.[O=C([C@H](Cc1ccc(OP(=O)(O)O)cc1)N[*:1])[*:2]].E.E.M.R.A.F.Q.D}$$$$V2.0), which Kd (VAV3 SH2 domain) is on record?
**A.** 8.4 µM

**Q.** What does the source list for `CSCC[C@H](NC(=O)[C@H](Cc1ccc(OP(=O)(O)O)cc1)NC(=O)CNC(=O)[C@H](CCC(=O)O)NC(=O)[C@H](CCC(=O)O)NC(=O)[C@H](CC(=O)O)NC(=O)[C@H](CC(C)C)NC(=O)[C@H](CCC(=O)O)NC(=O)CNC(=O)[C@H](CCCNC(=N)N)NC(=O)[C@@H]1CCCN1)C(=O)N[C@H](C(=O)N1CCC[C@H]1C(=O)N[C@@H](CCSC)C(=O)N[C@@H](CCCNC(=N)N)C(=O)N[C@@H](CC(=O)O)C(=O)N[C@@H](CCCCN)C(=O)N[C@@H](CC(=O)O)C(=O)O)[C@@H](C)O` [ErbB4 1150 18-mer] (HELM PEPTIDE1{P.R.G.E.L.D.E.E.G.[O=C([C@H](Cc1ccc(OP(=O)(O)O)cc1)N[*:1])[*:2]].M.T.P.M.R.D.K.D}$$$$V2.0)?
**A.** Kd ([1]; protein PIK3R1-NC, FP, mean of replicate hits): 5.81 µM; Kd (VAV3 SH2 domain): 0.18 µM
